Laboratory results from US20080021026A1, “BENZOTHIOPHENE INHIBITORS OF RHO KINASE” (priority 2006, published 2008).

Experiments:
[1] = biological target: T1, recombinant N-terminal GST-tagged human Rho kinase 2 (ROCK2, amino acids 1-552) (Homo sapiens, UniProt O75116); test: In vitro Rho kinase assay (luciferase-based ATP consumption), ROCK2; assay type: biochemical; details: recombinant GST-tagged human ROCK2, luciferase-based ATP consumption; read-out: ROCK2 IC50
T1 construct: ROCK2, amino acids 1-552; purchased Invitrogen Inc. PV3759
T1 sequence (O75116 1-552): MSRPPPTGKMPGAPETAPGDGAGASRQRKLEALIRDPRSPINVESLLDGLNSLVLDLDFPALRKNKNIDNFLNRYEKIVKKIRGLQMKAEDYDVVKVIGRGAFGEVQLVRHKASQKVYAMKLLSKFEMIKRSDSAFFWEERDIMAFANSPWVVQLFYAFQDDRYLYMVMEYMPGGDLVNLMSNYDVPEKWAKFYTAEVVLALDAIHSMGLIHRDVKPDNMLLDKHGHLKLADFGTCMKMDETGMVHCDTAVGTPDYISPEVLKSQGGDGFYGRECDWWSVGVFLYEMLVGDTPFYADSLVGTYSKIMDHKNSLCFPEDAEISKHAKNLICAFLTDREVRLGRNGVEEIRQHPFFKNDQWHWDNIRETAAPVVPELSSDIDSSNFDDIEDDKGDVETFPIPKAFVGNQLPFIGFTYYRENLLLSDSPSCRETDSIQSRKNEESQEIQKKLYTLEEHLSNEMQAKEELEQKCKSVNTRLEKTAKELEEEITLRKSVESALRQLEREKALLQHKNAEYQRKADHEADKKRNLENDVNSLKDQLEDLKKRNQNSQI
Procedure, shortened: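 Luciferase-based luminescence of leftover ATP after 2 h at 30 °C, where inhibition raises signal, reports activity of GST-tagged ROCK2 (aa 1-552) at 0.82 μg/ml. Conditions: S6 peptide 100 μg/ml, […], pH 7.5 Tris buffer. Results given as percent of H-1152P control activity.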

[2] = biological target: T2, recombinant N-terminal GST-tagged human Rho kinase 1 (ROCK1, amino acids 1-535) (Homo sapiens, UniProt Q13464); test: In vitro Rho kinase assay (luciferase-based ATP consumption), ROCK1; assay type: biochemical; details: recombinant GST-tagged human ROCK1, luciferase-based ATP consumption; read-out: ROCK1 IC50
T2 construct: ROCK1, amino acids 1-535; purchased Invitrogen Inc. PV-3691
T2 sequence (Q13464 1-535): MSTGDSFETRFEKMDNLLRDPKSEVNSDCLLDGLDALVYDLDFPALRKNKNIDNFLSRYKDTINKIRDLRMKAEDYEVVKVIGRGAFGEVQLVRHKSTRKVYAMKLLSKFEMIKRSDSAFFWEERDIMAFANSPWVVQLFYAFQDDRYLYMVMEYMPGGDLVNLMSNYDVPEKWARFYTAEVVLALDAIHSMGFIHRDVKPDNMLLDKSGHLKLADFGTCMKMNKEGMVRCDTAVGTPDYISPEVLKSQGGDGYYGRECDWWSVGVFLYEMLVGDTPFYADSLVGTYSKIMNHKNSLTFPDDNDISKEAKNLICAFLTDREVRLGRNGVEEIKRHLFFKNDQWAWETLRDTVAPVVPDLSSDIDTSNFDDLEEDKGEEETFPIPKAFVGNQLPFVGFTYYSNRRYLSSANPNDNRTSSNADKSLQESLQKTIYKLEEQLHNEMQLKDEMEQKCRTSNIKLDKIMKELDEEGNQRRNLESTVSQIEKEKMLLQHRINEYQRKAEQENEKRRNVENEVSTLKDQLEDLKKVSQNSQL
Procedure, shortened: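 ATP depletion measured by firefly luciferase luminescence after 2 h at 30 °C, with inhibition raising signal and activity expressed relative to H-1152P. Reaction: 0.82 μg/ml recombinant GST-tagged ROCK1 (aa 1-535), S6 peptide 100 μg/ml, […], pH 7.5 Tris buffer.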

[3] = system: lasered (hypertensive) eyes of conscious cynomolgus monkeys; test: Acute IOP response in lasered (hypertensive) eyes of conscious cynomolgus monkeys; assay type: in vivo; details: instilled in right eye, IOP measured at 1, 3 and 6 hours, peak reduction; for Peak % Lowering of IOP vs. Control at 0.3%: compound concentration 0.3%
Description: Acute IOP Response in Lasered (Hypertensive) Eyes of Conscious Cynomolgus Monkeys
Intraocular pressure (IOP) can be determined with an Alcon Pneumatonometer after light corneal anesthesia with 0.1% proparacaine. Eyes are washed with saline after each measurement. After a baseline IOP measurement, test compound is instilled in one […] aliquot to the right eyes only of nine cynomolgus monkeys. Vehicle is instilled in the right eyes of six additional animals. Subsequent IOP measurements are taken at 1, 3, and 6 hours, and peak reduction in IOP is reported below in Table 2 as percent of IOP lowering versus the control for each of the given concentrations of compound.
A more detailed description of the assay used herein may be found in May et al., “Evaluation of the Ocular Hypotensive Response of Serotonin 5-HT1A and 5-HT2 Receptor Ligands in Conscious Ocular Hypertensive Cynomolgus Monkeys,” J. of Pharmacology and Experimental Therapeutics, vol. 306(1), pp. 301-309 (2003), the disclosure of which is hereby incorporated by reference as if written herein in its entirety.

| IC50 [1] [µM] | IC50 [2] [µM] | SMILES | Peak % Lowering of IOP vs. Control at 0.3% [3] [%] | Peak % Lowering of IOP vs. Control at 1.0% ([3]; compound concentration 1.0%) [%] |
| --- | --- | --- | --- | --- |
| < 5 | < 5 | Cc1c(-c2ccnc(N)n2)sc2ccc(Cc3cccc(O)c3)cc12 [Example 27, 3-((2-(2-Aminopyrimidin-4-yl)-3-methylbenzo[b]thiophen-5-yl)methyl)phenol] | 3.6 | – |
| < 5 | < 5 | COc1cccc(Cc2ccc3sc(-c4ccnc(N)n4)c(C)c3c2)c1 [Example 26, 4-(5-(3-Methoxybenzyl)-3-methylbenzo[b]thiophen-2-yl)pyrimidin-2-amine] | 9.8 | – |
| < 5 | < 5 | COc1cccc(Nc2ccc3sc(-c4ccnc(N)n4)c(C)c3c2)c1 [Example 51, 4-(5-(3-Methoxyphenylamino)-3-methylbenzo[b]thiophen-2-yl)pyrimidin-2-amine] | 9.5 | 18.6 |
